± gives the expanded uncertainty stated by the source.
Details: Liquid; for mass density: 298.15 K, 101.33 kPa, Vibrating tube method; for vapor or sublimation pressure: Closed cell (Static) method

SMILES	mass density [kg/m3]	vapor or sublimation pressure (383.15 K) [kPa]	vapor or sublimation pressure (403.15 K) [kPa]	vapor or sublimation pressure (413.15 K) [kPa]	vapor or sublimation pressure (393.15 K) [kPa]	vapor or sublimation pressure (362.65 K) [kPa]	vapor or sublimation pressure (363.15 K) [kPa]	vapor or sublimation pressure (391.95 K) [kPa]	vapor or sublimation pressure (392.95 K) [kPa]	vapor or sublimation pressure (420.95 K) [kPa]	vapor or sublimation pressure (422.95 K) [kPa]	vapor or sublimation pressure (423.15 K) [kPa]
COC(=O)OC [dimethyl carbonate]	1063.24 ± 0.1	187 ± 6	320 ± 6	414 ± 6								
CCO [ethanol]	785.09 ± 0.13				429 ± 7							
CO [methanol]	786.42 ± 0.13	481 ± 6	843 ± 7	1092 ± 7	640 ± 7	251 ± 6	255 ± 6	618 ± 6	636 ± 7	1316 ± 7	1380 ± 8	1387 ± 8
O [water]					199 ± 6							
